Results: publication PMC2597681 (Biochemistry, 2008)
Like-named read-outs stand apart in the source and are kept apart here.

What was measured:
[1] = molecular target: T1, bovine heart mitochondrial complex I (NADH-ubiquinone oxidoreductase) (Bos taurus, UniProt P03887+P17694); assay: NADH oxidase activity in SMP; format: biochemical
[2] = molecular target: T1, bovine heart mitochondrial complex I (NADH-ubiquinone oxidoreductase); conditions: ref [27]; cited from earlier work
[3] = tested on: 49 kDa subunit and an unidentified subunit of complex I; assay: Suppression of specific binding of [125I]AFP to SMP; parameters: species or system bovine; conditions: [125I]AFP 6 nM; competitor 60, 600 or 6,000 nM; SMP 1.0 mg of protein/mL
ND1 subunit [4] = molecular target: T2, ND1 subunit (Bos taurus, UniProt P03887+P17694); assay: Suppression of specific photoaffinity labeling of the ND1 subunit by [125I]TDA; format: binding, bovine; conditions: [125I]TDA 3 nM; SMP 0.3 mg of protein/mL
T2 sequence (P03887 whole entry): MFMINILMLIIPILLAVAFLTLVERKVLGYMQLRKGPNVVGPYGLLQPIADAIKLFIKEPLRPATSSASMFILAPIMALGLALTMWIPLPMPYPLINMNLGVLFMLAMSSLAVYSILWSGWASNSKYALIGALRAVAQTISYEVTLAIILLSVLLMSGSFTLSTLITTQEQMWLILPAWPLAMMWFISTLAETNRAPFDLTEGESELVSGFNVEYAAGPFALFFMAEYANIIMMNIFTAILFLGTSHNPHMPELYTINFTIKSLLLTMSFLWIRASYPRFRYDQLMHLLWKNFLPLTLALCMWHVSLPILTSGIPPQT
T2 sequence (P17694 34-463): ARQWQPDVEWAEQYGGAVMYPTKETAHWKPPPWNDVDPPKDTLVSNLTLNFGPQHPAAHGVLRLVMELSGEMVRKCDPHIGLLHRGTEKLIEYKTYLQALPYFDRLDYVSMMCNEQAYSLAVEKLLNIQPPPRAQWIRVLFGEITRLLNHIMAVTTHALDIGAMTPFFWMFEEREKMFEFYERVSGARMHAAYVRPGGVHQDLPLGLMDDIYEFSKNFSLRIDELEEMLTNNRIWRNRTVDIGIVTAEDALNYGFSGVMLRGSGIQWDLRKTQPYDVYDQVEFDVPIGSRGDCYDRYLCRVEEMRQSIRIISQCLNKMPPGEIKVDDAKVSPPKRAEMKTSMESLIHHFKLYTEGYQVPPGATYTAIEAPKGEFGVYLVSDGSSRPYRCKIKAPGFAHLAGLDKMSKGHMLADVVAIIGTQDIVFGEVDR
T2 sequence (P42026 38-216 partner): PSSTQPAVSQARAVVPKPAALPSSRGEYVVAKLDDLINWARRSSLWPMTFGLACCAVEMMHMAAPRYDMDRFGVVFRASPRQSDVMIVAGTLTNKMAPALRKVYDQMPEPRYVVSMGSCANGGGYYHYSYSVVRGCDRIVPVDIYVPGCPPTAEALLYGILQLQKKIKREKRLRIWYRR

[5] = molecular target: bovine heart mitochondrial complex I (ubiquinol-NAD+ oxidoreductase activity) (Bos taurus, UniProt P03887+P17694); conditions: ref [27]; cited from earlier work
Chain of bovine heart mitochondrial complex I (ubiquinol-NAD+ oxidoreductase activity) (P17694 34-463): as the sequence (P17694 34-463) above
Chain of bovine heart mitochondrial complex I (ubiquinol-NAD+ oxidoreductase activity) (P03887 whole entry): as the sequence (P03887 whole entry) above
Chain of bovine heart mitochondrial complex I (ubiquinol-NAD+ oxidoreductase activity) (P42026 38-216 partner): as the sequence (P42026 38-216 partner) above

ND1 subunit [6] = molecular target: T2, ND1 subunit; conditions: ref [19]; cited from earlier work

T1 sequence (P17694 34-463): as the sequence (P17694 34-463) above
T1 sequence (P03887 whole entry): as the sequence (P03887 whole entry) above
T1 sequence (P42026 38-216 partner): as the sequence (P42026 38-216 partner) above

SMILES	IC50 [1] [nM]	IC50 values, Forward electron transfer [2]	Suppression of specific labeling of the two subunits by [125I]AFP (in words) [3]	Suppression of specific binding of [125I]TDA to ND1 (in words) (ND1 subunit [4])	IC50 (R)/IC50 (F), ratio of IC50 (reverse)/IC50 (forward) [5]	IC50 values, Reverse electron transfer [5]	Suppression of specific binding of [125I]TDA to ND1 (in words) (ND1 subunit [6])
CCCCCCCCCCC(O)C1CCC(C2CCC(C(O)CCCCCCCCCCC(O)CC3=CC(C)OC3=O)O2)O1 (stereo not drawn) [Bullatacin, bullatacin]	0.85	46 ± 5.2 pmol inhibitor/mg of protein	suppressed the radiolabeling	suppressed the specific binding more efficiently than the piperazines	0.61	28 ± 4.4 pmol inhibitor/mg of protein	
Cc1nn(C)c(Oc2ccccc2)c1C=NOCc1ccc(C(=O)OC(C)(C)C)cc1 [fenpyroximate]			suppressed the radiolabeling				completely suppress
C/C=C(\C)[C@H](O)[C@H](C)/C=C(C)/C=C/C/C(C)=C/Cc1nc(OC)c(OC)c(O)c1C [piericidin A]		81 ± 7.1 pmol inhibitor/mg of protein			0.59	48 ± 4.3 pmol inhibitor/mg of protein	completely suppress
CC(C)(C)c1ccc(CSc2cnn(C(C)(C)C)c(=O)c2Cl)cc1 [pyridaben]			suppressed the radiolabeling				completely suppress
C=C(C)[C@H]1Cc2c(ccc3c2O[C@@H]2COc4cc(OC)c(OC)cc4[C@@H]2C3=O)O1 [rotenone]			suppressed the radiolabeling				
